Results on two compounds are retold here after patent US20250152496A1, “SKIN IMPROVING AGENT CONTAINING FERMENTED EXTRACT AS MAIN RAW MATERIAL” (priority 2022, published 2025).

For assay [1], the system named is rat basophilic leukemia cell RBL-2H3. Briefly: degranulation inhibition: β-hexosaminidase activity of antigen-stimulated RBL-2H3 cells. The format is cell-based. Particulars: 50 µg/mL, positive control. The procedure:
To determine an extent to which the test object inhibits degranulation, degranulation is assessed by measuring the activity of β-hexosaminidase, which is abundantly present in the granulocyte. Accordingly, the effect of the test object on allergic reaction is evaluated. It is known that rat basophilic leukemia cell RBL-2H3 releases the granulocyte containing histamine and the like to the outside of the cell when IgE bound to the cell surface is cross-linked with an antigen. This has been applied as an experimental system to exploratory research and the like as screening for substances having an anti-allergic action against type I allergy. In this example, the inhibition of degranulation is evaluated by stimulating RBL-2H3 cells with an antigen and measuring the activity of β-hexosaminidase (FIG. 4). […] Further, […] of quercetin was used as a positive control. […] By adding […] of the rice malt lactic acid bacterium fermentation liquid SW01, the activity of β-hexosaminidase was about 50%. […] Note that, the p value in FIG. 4 is p<0.01.

In assay [2] the test system is elastase derived from human skin fibroblasts (NHDF-Ad). Kind of assay: elastase activity inhibition test (anti-wrinkle test). The format is biochemical. Particulars: 50 nM; 37° C. for 2 hours. The procedure:
Therefore, in this example, elastase activity was evaluated by measuring an amount of nitroaniline produced using elastase derived from human skin fibroblasts (NHDF-Ad), and using N-Succinyl-Ala-Ala-Ala-β-nitroanilide as a substrate. Based on the elastase activity, a skin dermis elasticity retention and aging function (an activity inhibition rate) of the test object of rice malt lactic acid bacterium fermentation liquid SW01 (hereinafter, SW01) was examined.
The elastase activity was set to 100% using, as a control, a reaction with only elastase derived from human skin fibroblasts (NHDF-Ad) and N-Succinyl-Ala-Ala-Ala-β-nitroanilide as a substrate. Reaction conditions in this experiment were 37° C. for 2 hours.

For `O=c1c(O)c(-c2ccc(O)c(O)c2)oc2cc(O)cc(O)c12` [quercetin], in assay [1], the “activity of β-hexosaminidase (control with sterilized water = 100%)” value is recorded as “about 40%”.
Regarding `CC(C)C[C@H](NP(=O)(O)O[C@@H]1O[C@@H](C)[C@H](O)[C@@H](O)[C@H]1O)C(=O)N[C@@H](Cc1c[nH]c2ccccc12)C(=O)O` [phosphoramidon], the “elastase inhibition by standard agent” value in assay [2] is listed as “show elastase inhibition”.
